US12329171B1, “Natural food preservative” (IMAM MOHAMMAD IBN SAUD ISLAMIC UNIVERSITY, priority 2024, dated 2025)

Columns and labels:
S. aureus = experiment: Well diffusion assay, antibacterial; assay type: cell-based, Staphylococcus aureus; details: 10 μl
From the text: (§1) The investigation focused on the antibacterial properties of extracts derived from onion peel, pomegranate peel, and chia seed, particularly when encapsulated in nanoformulations (OPE-CSNP and PPE-CSNP). The extracts, known for their richness in bioactive compounds like phenolic compounds, flavonoids, and tannins, were explored for potential health benefits against various microbes. The study employed the inhibition zone diameter to evaluate the effectiveness of these natural extracts in inhibiting microbial growth, thereby assessing their antimicrobial properties.
(§2) Moreover, these composites show promise as food preservatives, potentially extending shelf life, given their moderate antimicrobial activity against B. cereus and S. aureus.

B. cereus = experiment: Well diffusion assay, antibacterial; assay type: cell-based, Bacillus cereus; details: 10 μl
From the text: as §1, §2

| Compound | Inhibition zone diameter (mm) S. aureus (S. aureus) [mm] | Inhibition zone diameter (mm) B. cereus (B. cereus) [mm] |
| --- | --- | --- |
| CC1(C)S[C@@H]2[C@H](NC(=O)[C@H](N)c3ccccc3)C(=O)N2[C@H]1C(=O)O [Ampicillin, ampicillin] | 16 | 16 |
| penicillin | 14 | 14 |
